We go through eleven compounds from ChEMBL document CHEMBL1201862, “PubChem BioAssay data set” (2004).

The nature of assay [1]: inhibitors of Vif binding to APOBEC3G peptide, primary screen, biochemical, TR-FRET, GST-Vif 1-94, biotin-A3G peptide, dose response retest (AID 1117319).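 Further: TR-FRET signal of purified GST-Vif binding a biotinylated A3G peptide; inhibitors lower the FRET signal by blocking Vif and A3G binding.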 The format is functional. A general note: Time-resolved FRET reads energy transfer from a long-lived donor to a nearby acceptor.
Assay [2] is described as follows: Fluorescence Cell-Based Dose Response to Identify Inhibitors of Thrombin Receptor-Activating Peptide SFLLRN-Mediated P-Selectin Induction on Platelets. [Related pubchem assays: 1663 (Primary HTS), 1889 (retest at dose ), 1891 (counterscreen), 1678 (Project Summary)]. Format: functional. For orientation: The purpose of a counterscreen is to sort out artefacts and off-target activity.

Assay [3] addresses Luciferin 4-monooxygenase (Photinus pyralis, UniProt P08659). The assay is described as follows: firefly luciferase enzyme inhibitors, dose response, biochemical, luminescence (AID 1891).
A short description of assay [4]: Luminescence Cell-Based Dose Confirmation HTS to Identify Inhibitors of Platelet Dense Granule Release. [Related pubchem assays: 1663 (Primary HTS), 1678 (Summary of Project)]. The format is functional.
Assay [5] can be described thus: CEM21 lymphoblast cell cytotoxicity, dose response, cytotoxicity control for viral fusion inhibitor project, CellTiter-Glo luminescence, cherry-picked (AID 652042).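 Further: potency for signal decrease meaning cytotoxicity.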 The format is functional, cell-based. A general note: Cellular ATP, detected with luciferase, serves as a proxy for viable cell number.
Assay [6] can be described thus: MC4R antagonists, dose response, counter-screen for LGR2 antagonist project, cell-based, plate reader, cherry pick (AID 743444).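 Further: transfected HEK 293 cells stimulated with alpha-MSH peptide; potency of inhibitors of the alpha-MSH evoked signal.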 The format is functional.
Assay [7] can be described thus: P. falciparum Dd2 growth inhibitors, dose response, SYBR Green, dry powder samples, set 9 (AID 1159568). Format: functional, cell-based.
A short description of assay [8]: HepG2 cell cytotoxicity, dose response, cytotoxicity control, cherry-picks, set 5 (AID 1053118). Format: functional, cell-based.
The nature of assay [9]: HEK293 cell cytotoxicity, dose response, cytotoxicity control, plate reader, cherry-picked samples (AID 743446). The format is functional, cell-based.
Assay [10] can be described thus: A549 cell cytotoxicity, dose response, cytotoxicity control, cherry-picks, 26 µM top dose (AID 1053119). Format: functional, cell-based.
Assay [11] can be described thus: LGR2 antagonists, dose response, cell-based, HEK293, CRE-luciferase reporter, cherry pick, set 2 (AID 743343).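 Further: transfected cells were stimulated with diluted bursicon conditioned medium after compound addition.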 The format is functional.
A short description of assay [12]: HepG2 cell cytotoxicity, dose response, cytotoxicity control, plate reader, cherry-pick, antagonist series (AID 743416). Format: functional, cell-based.
Assay [13] in a line: A549 cell cytotoxicity, dose response, cytotoxicity control, plate reader, cherry-pick, antagonist series (AID 743412). Format: functional, cell-based.
The target in assay [14] is Genome polyprotein (Hepatitis C virus, UniProt Q2Q167). Kind of assay: HCV core protein dimerization inhibitors, dose response, biochemical, TR-FRET (AID 2159).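 Further: blocks dimerization of HCV core protein measured by TR-FRET between tagged core106 pairs.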 Details: species or system Hepacivirus hominis.
The target of assay [15] is T1, SUMO-activating enzyme (Homo sapiens, UniProt Q9UBT2). The assay is described as follows: inhibitors of in vitro SUMOylation cascade, primary screen, biochemical, HTRF, uHTS (AID 2006). Format: protein-complex assay.
Assay [16] concerns the target T1, SUMO-activating enzyme. Kind of assay: SUMOylation inhibitor hit validation, confirmation, SUMOylation inhibitor project, biochemical, AlphaScreen (AID 2018). The format is functional.
Assay [17] has as its system Vero. Kind of assay: Vero cell cytotoxicity, cytotoxicity control for flavivirus capping enzyme inhibitors (AID 588742). Format: functional. As to conditions: Chlorocebus sabaeus.
In assay [18] the target is Glutathione-S-transferase (Schistosoma japonicum, UniProt Q26513). Kind of assay: biotin-GST/anti-GST TR-FRET signal inhibitors, dose response, artefact control for Vif-APOBEC3G degradation inhibitor project, biochemical (AID 1117362). Format: functional.
Assay [19] has as its target Metabotropic glutamate receptor 7 (Homo sapiens, UniProt Q14831). Kind of assay: mGlu7 positive allosteric modulators, dose response, cell-based, calcium mobilization, Galpha15 (AID 743384). The format is functional.
Assay [20] is described as follows: P. falciparum ATP4 D1247Y mutant growth inhibitors, dose response, NITD609-resistant line, SYBR Green, dry powder (AID 1159571).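 Further: parasites synchronized at ring stage by sorbitol before testing.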 The format is functional, cell-based.
Assay [21] in a line: P. falciparum Dd2 growth inhibitors, dose response, SYBR Green, cherry-picked samples (AID 1159567). Format: functional, cell-based.
Assay [22] can be described thus: P. falciparum 3D7-ScDHODH growth inhibitors, dose response, SYBR Green, dry powder samples (AID 1159570).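 Further: parasite growth measured after 72 hours of compound exposure.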 The format is functional, cell-based.
Assay [23] in a line: Plasmodium falciparum Dd2 Sybr green parasite growth Measured in Cell-Based and Microorganism Combination System Using Plate Reader - 2153-01_Inhibitor_Dose_DryPowder_Activity_Set3. Format: functional.
Assay [24] is described as follows: P. falciparum Dd2 growth inhibitors, dose response, SYBR Green, dry powder samples (AID 1159566).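 Further: potency for growth inhibition with lower SYBR green DNA signal.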 The format is functional, cell-based.
The nature of assay [25]: P. falciparum Dd2 growth inhibitors, dose response, SYBR Green, dry powder samples, set 4 (AID 1159572). The format is functional, cell-based.
The target of assay [26] is G-protein coupled receptor 183 (Homo sapiens, UniProt P32249). The assay is described as follows: SAR confirmation of small molecule antagonists of the EBI2 receptor via a luminescent beta-arrestin assa. The format is functional.
Assay [27] in a line: Luminescence-based dose response cell-based high throughput screening assay for cytotoxic compounds using the IEC-6 intestinal epithelial cell line. [Related pubchem assays: 1858 (Summary AID.), 1825 (Counterscreen.), 1907 (Confirmation screen.)]. Format: functional.
Assay [28] relates to P388. The assay is described as follows: cells. The format is functional. As to conditions: Mus musculus, P388.
The test system of assay [29] is SN12K1. The assay is described as follows: cells. The format is functional. As to conditions: Homo sapiens, SN12K1.
The subject of assay [30] is Streptococcus. Kind of assay: Group A Streptococcus viability loss, dose response, counter-screen for streptokinase expression inhibitor project, luminescence, BacTiterGlo (AID 1915).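 Further: potency for reduction of bacterial viability or growth.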 The format is functional, organism-based.
The target in assay [31] is T2, Streptokinase A (Streptococcus pyogenes serotype M1, UniProt P10520).
T2 sequence (P10520 whole entry): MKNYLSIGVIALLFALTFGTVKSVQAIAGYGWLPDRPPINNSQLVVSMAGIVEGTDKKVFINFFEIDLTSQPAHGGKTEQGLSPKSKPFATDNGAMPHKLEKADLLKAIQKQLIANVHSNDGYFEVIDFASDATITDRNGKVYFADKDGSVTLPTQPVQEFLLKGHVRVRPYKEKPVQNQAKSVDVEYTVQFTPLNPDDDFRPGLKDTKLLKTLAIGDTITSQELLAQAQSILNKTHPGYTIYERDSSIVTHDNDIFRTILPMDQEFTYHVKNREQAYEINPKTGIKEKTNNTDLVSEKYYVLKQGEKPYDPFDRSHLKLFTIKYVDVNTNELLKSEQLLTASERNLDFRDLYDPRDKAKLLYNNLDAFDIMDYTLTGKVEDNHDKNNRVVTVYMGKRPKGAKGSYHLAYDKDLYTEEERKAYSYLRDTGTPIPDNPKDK
The assay is described as follows: S. pyogenes streptokinase expression inhibitors, potency, dose response, plasminogen activation absorbance, OD405 (AID 1914).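 Further: secreted streptokinase activity via plasminogen activation per viability signal from cell pellet.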 Format: functional, Streptococcus pyogenes M1 GAS.

For assay [32], the system named is Streptococcus sp. 'group A'. The assay is described as follows: growth inhibition of control SK(-) GAS strain, dose response, counter-screen for streptokinase expression inhibitor project, luminescence, kanamycin, BacTiterGlo, confirmation (AID 1900). Format: functional, organism-based.
The test system of assay [33] is P388/ADR. The assay is described as follows: cells. As to conditions: Mus musculus. Format: functional.
A short description of assay [34]: SNU-C1 cell viability reduction, dose response, CellTiter-Glo luminescence (AID 1117323). Format: functional, cell-based.
Assay [35] is described as follows: cytotoxicity toward HCT116 cells – cell-based, CellTiter-Glo luminescence, IC50, dose response (AID 1117332). Format: functional. Conditions: HCT-116.
Assay [36] is described as follows: cytotoxicity toward HT-29 cells – cell-based, CellTiter-Glo luminescence, IC50, dose response (AID 1117330). Format: functional.
Assay [37] is described as follows: cytotoxicity toward Colo320 cells – cell-based, CellTiter-Glo luminescence, IC50, dose response (AID 1117334). Format: functional. As to conditions: COLO 320.
Assay [38] in a line: Concentration-dependent survival of SW480 colon cancer line, luminescence detection with CellTiter-Glo, half-maximal inhibitory concentration (AID 1117338). The format is functional.
Assay [39] in a line: HCT116 cell viability decrease, GSK3B pretreatment – CellTiter-Glo, IC50, dose response (AID 1117339). Format: functional. As to conditions: HCT-116.
Assay [40] is described as follows: CellTiter-Glo luminescent dose response of DLD-1 viability loss (AID 1117352). Format: functional.
Assay [41] in a line: RKO cell viability reduction, dose response, CellTiter-Glo luminescence (AID 1117322). Format: functional.

Each structure is given as a SMILES string. Structures can show the parent of a compound that is named as a salt. The source made the active and inactive calls.

T1 sequence (Q9UBE0 whole entry): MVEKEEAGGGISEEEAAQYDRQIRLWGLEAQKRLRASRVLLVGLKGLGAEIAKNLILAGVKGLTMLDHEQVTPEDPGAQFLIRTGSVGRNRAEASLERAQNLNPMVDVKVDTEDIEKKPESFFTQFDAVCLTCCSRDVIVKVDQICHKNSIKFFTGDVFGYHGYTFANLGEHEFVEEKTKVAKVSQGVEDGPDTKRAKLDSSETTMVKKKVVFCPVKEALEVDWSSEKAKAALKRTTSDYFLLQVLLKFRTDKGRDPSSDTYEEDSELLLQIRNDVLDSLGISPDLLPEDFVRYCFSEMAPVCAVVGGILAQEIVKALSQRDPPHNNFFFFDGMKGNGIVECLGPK
T1 sequence (Q9UBT2 whole entry): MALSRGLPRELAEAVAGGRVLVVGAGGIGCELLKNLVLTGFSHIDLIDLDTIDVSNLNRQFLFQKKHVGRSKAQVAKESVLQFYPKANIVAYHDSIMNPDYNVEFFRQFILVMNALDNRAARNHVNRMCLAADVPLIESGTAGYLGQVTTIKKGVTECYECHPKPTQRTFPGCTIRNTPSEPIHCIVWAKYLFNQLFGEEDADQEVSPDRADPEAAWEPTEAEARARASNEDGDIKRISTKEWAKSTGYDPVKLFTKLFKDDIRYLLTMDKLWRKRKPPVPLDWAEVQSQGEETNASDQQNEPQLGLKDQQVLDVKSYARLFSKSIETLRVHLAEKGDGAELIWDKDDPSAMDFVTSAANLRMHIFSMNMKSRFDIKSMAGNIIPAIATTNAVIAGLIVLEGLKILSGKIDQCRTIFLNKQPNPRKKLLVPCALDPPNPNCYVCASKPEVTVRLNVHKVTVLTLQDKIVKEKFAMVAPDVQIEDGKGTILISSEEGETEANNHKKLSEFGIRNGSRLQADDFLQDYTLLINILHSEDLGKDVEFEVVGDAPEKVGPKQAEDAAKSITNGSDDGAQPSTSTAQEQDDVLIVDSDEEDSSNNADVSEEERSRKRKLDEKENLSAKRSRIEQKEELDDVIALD
Metabotropic glutamate receptor 7, sequence (Q14831 whole entry): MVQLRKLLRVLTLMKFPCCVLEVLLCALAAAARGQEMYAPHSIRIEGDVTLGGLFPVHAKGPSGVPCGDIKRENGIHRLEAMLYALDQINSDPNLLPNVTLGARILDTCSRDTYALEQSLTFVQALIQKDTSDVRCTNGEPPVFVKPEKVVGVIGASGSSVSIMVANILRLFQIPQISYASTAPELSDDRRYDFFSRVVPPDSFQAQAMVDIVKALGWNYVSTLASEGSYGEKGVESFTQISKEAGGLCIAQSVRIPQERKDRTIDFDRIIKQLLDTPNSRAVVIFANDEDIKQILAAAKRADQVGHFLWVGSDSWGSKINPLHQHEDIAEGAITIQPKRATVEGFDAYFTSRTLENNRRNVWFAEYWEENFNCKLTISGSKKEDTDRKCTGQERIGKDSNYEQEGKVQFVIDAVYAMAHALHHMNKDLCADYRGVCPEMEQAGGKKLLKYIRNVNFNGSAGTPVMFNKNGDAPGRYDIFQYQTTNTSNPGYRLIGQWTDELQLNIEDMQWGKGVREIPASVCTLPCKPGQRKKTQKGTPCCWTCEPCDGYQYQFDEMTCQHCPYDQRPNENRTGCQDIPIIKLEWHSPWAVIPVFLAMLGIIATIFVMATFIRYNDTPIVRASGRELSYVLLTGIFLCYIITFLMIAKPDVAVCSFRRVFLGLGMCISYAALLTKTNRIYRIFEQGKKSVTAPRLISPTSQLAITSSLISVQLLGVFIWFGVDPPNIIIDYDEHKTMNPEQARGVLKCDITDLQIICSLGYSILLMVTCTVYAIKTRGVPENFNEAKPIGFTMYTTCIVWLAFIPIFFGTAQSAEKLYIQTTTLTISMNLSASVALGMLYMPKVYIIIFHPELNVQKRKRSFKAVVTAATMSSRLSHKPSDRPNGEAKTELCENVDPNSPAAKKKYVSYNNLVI
Luciferin 4-monooxygenase, sequence (P08659 whole entry): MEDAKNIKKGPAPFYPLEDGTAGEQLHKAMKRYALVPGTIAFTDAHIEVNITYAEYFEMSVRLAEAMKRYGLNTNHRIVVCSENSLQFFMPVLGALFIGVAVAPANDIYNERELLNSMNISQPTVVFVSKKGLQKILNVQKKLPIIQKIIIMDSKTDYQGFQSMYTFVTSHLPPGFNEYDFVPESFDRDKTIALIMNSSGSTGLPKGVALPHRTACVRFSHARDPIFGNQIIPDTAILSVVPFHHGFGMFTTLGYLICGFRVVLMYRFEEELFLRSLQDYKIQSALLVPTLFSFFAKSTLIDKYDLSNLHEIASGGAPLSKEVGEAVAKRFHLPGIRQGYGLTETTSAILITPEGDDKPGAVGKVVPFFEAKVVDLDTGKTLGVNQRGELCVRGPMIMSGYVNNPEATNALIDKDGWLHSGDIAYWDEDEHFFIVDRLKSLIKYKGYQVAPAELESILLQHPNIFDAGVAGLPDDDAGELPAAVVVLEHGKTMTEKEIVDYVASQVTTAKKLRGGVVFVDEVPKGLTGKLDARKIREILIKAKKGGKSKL
G-protein coupled receptor 183, sequence (P32249 whole entry): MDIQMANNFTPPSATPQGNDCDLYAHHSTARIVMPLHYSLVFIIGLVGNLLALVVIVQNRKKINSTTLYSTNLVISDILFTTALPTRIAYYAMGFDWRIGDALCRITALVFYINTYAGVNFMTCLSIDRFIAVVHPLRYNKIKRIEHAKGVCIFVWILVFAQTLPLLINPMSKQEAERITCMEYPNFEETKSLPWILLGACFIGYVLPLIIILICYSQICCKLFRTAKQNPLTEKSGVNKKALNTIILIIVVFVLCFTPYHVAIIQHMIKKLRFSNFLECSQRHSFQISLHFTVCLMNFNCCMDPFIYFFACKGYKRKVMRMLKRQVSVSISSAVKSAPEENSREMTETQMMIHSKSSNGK
Glutathione-S-transferase, sequence (Q26513 whole entry): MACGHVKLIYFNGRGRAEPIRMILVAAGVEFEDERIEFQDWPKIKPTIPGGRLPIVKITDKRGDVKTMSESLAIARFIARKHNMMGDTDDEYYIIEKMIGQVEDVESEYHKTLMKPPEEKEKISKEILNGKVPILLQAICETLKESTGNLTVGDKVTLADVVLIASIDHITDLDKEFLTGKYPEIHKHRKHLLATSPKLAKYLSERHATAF
Genome polyprotein, sequence (Q2Q167 whole entry): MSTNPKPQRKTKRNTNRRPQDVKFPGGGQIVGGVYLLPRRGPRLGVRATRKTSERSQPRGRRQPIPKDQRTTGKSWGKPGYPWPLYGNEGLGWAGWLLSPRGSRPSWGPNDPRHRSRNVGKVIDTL

As to `Cn1cc(CN2CCN(CCO)CC2)c(-c2ccc(Oc3ccccc3)cc2)n1`, in [1], the IC50 is > 100 µM (active).

As to `CCc1ccc(S(=O)(=O)N/N=C\c2ccc([N+](=O)[O-])o2)cc1`, the results for the EC50 in assay [2], in [3] and in assay [4] were < 30 µM (active), > 112 µM (not active) and 2.02 µM (active), respectively.

Turning to `O=C(C[C@@H]1C[C@@H]2c3cc(NC(=O)c4ccc5c(c4)OCO5)ccc3O[C@@H]2[C@@H](CO)O1)NCc1ccc(Oc2ccccc2)cc1`, the AC50 in [5] was 26.1 µM (active); in [6], 7.28 µM (active); in [7] it was 5.69 µM (active); in assay [8], 37.1 µM (active); in assay [9], 24.7 µM (active); in assay [10] it was 30.2 µM (active). Besides, the AC50 in [11] was 33.3 µM (active); in assay [12], 27.7 µM (active); in [13] it was 21.2 µM (active).

In the case of `COc1ccccc1/C=C/C=c1\sc2nc(=O)c(Cc3ccccc3)nn2c1=O`, the IC50 in assay [14] is > 49.8 µM (not active); in assay [15], 11.8 µM (active); in assay [16], 8.53 µM (active).

`Oc1ccccc1/C=N/c1c(-c2ccco2)nc2ccccn12`: the CC50 in [17] is > 40 µM (active). The half-maximal inhibitory concentration (IC50) in [18] was > 100 µM (active).

As to `CCn1c(C)cc(C(=O)CSc2ccc(NC(C)=O)cc2)c1C`, in assay [19], the EC50 is 10 µM (active).

As to `N#C[C@H]1[C@@H](c2ccc(C#CC3CCCC3)cc2)[C@@H](CO)N1S(=O)(=O)Cc1ccccc1`, the concentration at half-maximal activity (AC50) was 3.23 µM (active) in assay [20]; 2.73 µM (active) in [21]; 2.06 µM (active) in assay [22]; 3.05 µM (active) in [23]; 0.982 µM (active) in assay [24].

For `COc1ccc2c3c([nH]c2c1)[C@H](CO)N(C(C)=O)CC31CCN(C(=O)CN2CCOCC2)CC1`, the AC50 in assay [25] was 2.59 µM (active).

With `CC(C)c1ccc(CN2CCN(C(=O)/C=C/c3ccc(Br)cc3)CC2)cc1`, in assay [26], the IC50 was 0.00592 µM (active).

As to `N=c1ccn2c(n1)O[C@H]1[C@H](O)[C@@H](CO)O[C@H]12` [ANCITABINE HYDROCHLORIDE], the 50% inhibitory concentration (IC50) in assay [27] was 1.79 µM (active). For the same compound, the GI50 in assay [28] was 0.103 µM (active); in [29] it was 0.191 µM (active); in assay [33], 0.205 µM (active). In addition, the EC50 in [30] was 53.1 µM (active); in assay [31] it was > 150 µM (not active); in assay [32], 3.2 µM (active).

`CCCCCCCC(=O)OCC(COC(=O)CCCCCCC)OC(=O)CCCCCCC` [TRICAPRILIN]: the IC50 in assay [34], in assay [35], in assay [36], in assay [37], in assay [38] and in [39] was > 20 µM (inactive) each time. For the same compound, the IC50 in assay [40] and in assay [41] was > 20 µM (inactive) in each case.

The IC50 is the midpoint of a concentration-inhibition curve. A word on the EC50: it is the concentration needed to bring the measured effect to its halfway point. What is called AC50 is the midpoint of the concentration-response curve, whichever way the signal moves. In general, CC50 refers to the concentration at which the toxic effect on the cells reaches its halfway point. Usually GI50 stands for the concentration at which growth is held to half of that of the control.
